Reference: publication PMC5218480 (PLoS ONE, 2017)

Tested on: MV-4-11 cells
Test: Gene expression microarray analysis (Affymetrix PrimeView) and GSEA
Assay type: cell-based, human
Parameters: RFU PODN (11730768_x_at) / Fold change /veh PODN (11730768_x_at) / RFU LINC00158 (11744669_a_at) / Fold change /veh LINC00158 (11744669_a_at) / RFU DUSP10 (11751237_a_at) / Fold change /veh DUSP10 (11751237_a_at) / RFU ID3 (11757404_x_at) / Fold change /veh ID3 (11757404_x_at) / RFU PLEKHG5 (11737974_s_at) / Fold change /veh PLEKHG5 (11737974_s_at) / RFU LRRC4B (11730491_at) / Fold change /veh LRRC4B (11730491_at) / RFU GIMAP4 (11747438_a_at) / Fold change /veh GIMAP4 (11747438_a_at) / RFU KRT8 (11758183_x_at) / Fold change /veh KRT8 (11758183_x_at) / RFU CNN1 (11734310_a_at) / Fold change /veh CNN1 (11734310_a_at) / RFU VPS37D (11726825_at) / Fold change /veh VPS37D (11726825_at) / RFU C10orf10 (11716522_x_at) / Fold change /veh C10orf10 (11716522_x_at) / RFU KIR2DL2 /// KIR2DL4 /// KIR2DL5A /// KIR2DL5B /// KIR2DS1 /// KIR2DS2 /// KIR2DS3 /// KIR2DS4 /// KIR3DL3 /// KIR3DL3 /// KIR3DS1 (11738374_at) / Fold change /veh KIR2DL2 /// KIR2DL4 /// KIR2DL5A /// KIR2DL5B /// KIR2DS1 /// KIR2DS2 /// KIR2DS3 /// KIR2DS4 /// KIR3DL3 /// KIR3DL3 /// KIR3DS1 (11738374_at) / RFU C1QL1 (11718748_at) / Fold change /veh C1QL1 (11718748_at) / RFU TMPRSS4 (11747572_a_at) / Fold change /veh TMPRSS4 (11747572_a_at) / RFU HAMP (11756126_x_at) / Fold change /veh HAMP (11756126_x_at) / RFU RNFT2 (11725882_a_at) / Fold change /veh RNFT2 (11725882_a_at) / RFU NR4A2 (11747474_a_at) / Fold change /veh NR4A2 (11747474_a_at) / RFU ABCC12 (11746883_a_at) / Fold change /veh ABCC12 (11746883_a_at) / RFU TMEM136 (11760407_x_at) / Fold change /veh TMEM136 (11760407_x_at) / RFU CLDN22 /// WWC2 (11732394_at) / Fold change /veh CLDN22 /// WWC2 (11732394_at) / RFU HLA-DPB1 (11760878_x_at) / Fold change /veh HLA-DPB1 (11760878_x_at) / RFU SPINT1 (11716480_a_at) / Fold change /veh SPINT1 (11716480_a_at) / RFU GAP43 (11754022_s_at) / Fold change /veh GAP43 (11754022_s_at) / RFU A4GNT (11735810_at) / Fold change /veh A4GNT (11735810_at) / RFU PRB3 (11715151_x_at) / Fold change /veh PRB3 (11715151_x_at) / RFU TUBB4B (11761932_at) / Fold change /veh TUBB4B (11761932_at) / RFU CAPN14 (11732068_a_at) / Fold change /veh CAPN14 (11732068_a_at) / RFU TMCC2 (11721928_a_at) / Fold change /veh TMCC2 (11721928_a_at) / RFU IRGQ (11745062_a_at) / Fold change /veh IRGQ (11745062_a_at) / RFU FAM174B (11720279_a_at) / Fold change /veh FAM174B (11720279_a_at) / RFU TMPRSS4 (11748680_a_at) / Fold change /veh TMPRSS4 (11748680_a_at) / RFU FAM212B (11763350_a_at) / Fold change /veh FAM212B (11763350_a_at) / RFU PLEKHG5 (11743358_a_at) / Fold change /veh PLEKHG5 (11743358_a_at) / RFU ZSCAN30 (11745921_a_at) / Fold change /veh ZSCAN30 (11745921_a_at) / RFU CMKLR1 (11741424_a_at) / Fold change /veh CMKLR1 (11741424_a_at) / RFU LOC101060620 /// MAPK8IP1 (11723275_at) / Fold change /veh LOC101060620 /// MAPK8IP1 (11723275_at) / RFU SPTSSB (11747773_x_at) / Fold change /veh SPTSSB (11747773_x_at) / RFU PRSS12 (11739890_at) / Fold change /veh PRSS12 (11739890_at) / RFU BIN1 (11741810_x_at) / Fold change /veh BIN1 (11741810_x_at) / RFU WNT11 (11732464_a_at) / Fold change /veh WNT11 (11732464_a_at) / RFU C10orf10 (11716521_a_at) / Fold change /veh C10orf10 (11716521_a_at) / RFU C5orf56 (11738089_at) / Fold change /veh C5orf56 (11738089_at) / RFU CYB561 (11721691_x_at) / Fold change /veh CYB561 (11721691_x_at) / RFU ANKRD19P (11752326_a_at) / Fold change /veh ANKRD19P (11752326_a_at) / RFU OR2T12 /// OR2T33 /// OR2T8 (11738714_s_at) / Fold change /veh OR2T12 /// OR2T33 /// OR2T8 (11738714_s_at) / RFU VCAN (11748164_a_at) / Fold change /veh VCAN (11748164_a_at) / RFU JSRP1 (11732532_at) / Fold change /veh JSRP1 (11732532_at) / RFU KRTAP10-11 (11738290_x_at) / Fold change /veh KRTAP10-11 (11738290_x_at) / RFU MYO3A (11730013_a_at) / Fold change /veh MYO3A (11730013_a_at) / RFU EBF3 (11725865_a_at) / Fold change /veh EBF3 (11725865_a_at) / RFU CAMK2N1 (11719241_x_at) / Fold change /veh CAMK2N1 (11719241_x_at) / RFU C5orf56 (11738088_a_at) / Fold change /veh C5orf56 (11738088_a_at) / RFU OLFML3 (11715873_a_at) / Fold change /veh OLFML3 (11715873_a_at) / RFU LOC100653217 /// NTM (11731650_a_at) / Fold change /veh LOC100653217 /// NTM (11731650_a_at) / RFU MAPK11 (11762145_a_at) / Fold change /veh MAPK11 (11762145_a_at) / RFU FIZ1 (11724087_x_at) / Fold change /veh FIZ1 (11724087_x_at) / RFU OASL (11726364_x_at) / Fold change /veh OASL (11726364_x_at) / RFU SOX15 (11748057_x_at) / Fold change /veh SOX15 (11748057_x_at) / RFU CD79A (11719716_a_at) / Fold change /veh CD79A (11719716_a_at) / RFU HIST1H1D (11736915_at) / Fold change /veh HIST1H1D (11736915_at) / RFU CASKIN2 (11723855_a_at) / Fold change /veh CASKIN2 (11723855_a_at) / RFU LOC730098 (11760151_x_at) / Fold change /veh LOC730098 (11760151_x_at) / RFU OR4N2 (11742367_at) / Fold change /veh OR4N2 (11742367_at) / RFU PRRT2 (11749266_a_at) / Fold change /veh PRRT2 (11749266_a_at) / RFU SNX32 (11753110_a_at) / Fold change /veh SNX32 (11753110_a_at) / RFU CDHR5 (11726645_a_at) / Fold change /veh CDHR5 (11726645_a_at) / RFU RCAN1 (11760418_a_at) / Fold change /veh RCAN1 (11760418_a_at) / RFU FAM167A (11723789_a_at) / Fold change /veh FAM167A (11723789_a_at) / RFU FAM26E (11764081_at) / Fold change /veh FAM26E (11764081_at) / RFU ISYNA1 (11749810_s_at) / Fold change /veh ISYNA1 (11749810_s_at) / RFU ACY1 (11761880_at) / Fold change /veh ACY1 (11761880_at) / RFU 11764098_at / Fold change /veh 11764098_at / RFU SAMD14 (11745864_x_at) / Fold change /veh SAMD14 (11745864_x_at) / RFU NPB (11741838_a_at) / Fold change /veh NPB (11741838_a_at) / RFU TMPRSS6 (11731388_a_at) / Fold change /veh TMPRSS6 (11731388_a_at) / RFU KRTAP10-2 (11738614_at) / Fold change /veh KRTAP10-2 (11738614_at) / RFU ARHGAP8 /// PRR5-ARHGAP8 (11727945_x_at) / Fold change /veh ARHGAP8 /// PRR5-ARHGAP8 (11727945_x_at) / RFU KRTAP5-7 /// NADSYN1 (11734609_at) / Fold change /veh KRTAP5-7 /// NADSYN1 (11734609_at) / RFU RASL12 (11751679_a_at) / Fold change /veh RASL12 (11751679_a_at) / RFU CDKN2B (11736163_a_at) / Fold change /veh CDKN2B (11736163_a_at) / RFU PRF1 (11729649_at) / Fold change /veh PRF1 (11729649_at) / RFU, ZNF638 /// ZNF638-IT1 / Fold change vs veh, ZNF638 /// ZNF638-IT1 / RFU, PANK3 / Fold change vs veh, PANK3 / RFU, SH3YL1 / Fold change vs veh, SH3YL1 / RFU, ZEB2 / Fold change vs veh, ZEB2 / RFU, NRIP1 / Fold change vs veh, NRIP1 / RFU, PTTG1IP / Fold change vs veh, PTTG1IP / RFU, CAPN2 / Fold change vs veh, CAPN2 / RFU, MED14 / Fold change vs veh, MED14 / RFU, SNORA58 / Fold change vs veh, SNORA58 / RFU, C1orf63 / Fold change vs veh, C1orf63 / RFU, LRRFIP1 / Fold change vs veh, LRRFIP1 / RFU, NDUFAF7 / Fold change vs veh, NDUFAF7 / RFU, SLC12A2 / Fold change vs veh, SLC12A2 / RFU, IBTK / Fold change vs veh, IBTK / RFU, ESF1 / Fold change vs veh, ESF1 / Fold change vs veh, TMEM50B / RFU, TAOK1 / Fold change vs veh, TAOK1 / RFU, ACBD3 / Fold change vs veh, ACBD3 / RFU, TMA16 / Fold change vs veh, TMA16 / RFU, RWDD3 / Fold change vs veh, RWDD3 / RFU, BCAT1 / Fold change vs veh, BCAT1 / RFU, EDEM3 / Fold change vs veh, EDEM3 / RFU, TMEM33 / Fold change vs veh, TMEM33 / RFU, WDR75 / Fold change vs veh, WDR75 / RFU, AHCTF1 / Fold change vs veh, AHCTF1 / RFU, TFRC / Fold change vs veh, TFRC / RFU, ZDHHC17 / Fold change vs veh, ZDHHC17 / RFU, NOM1 / Fold change vs veh, NOM1 / RFU, ARL8B / Fold change vs veh, ARL8B / RFU, ZBTB11 / Fold change vs veh, ZBTB11 / RFU, TAMM41 / Fold change vs veh, TAMM41 / RFU, KIAA1704 /// LOC100996395 / Fold change vs veh, KIAA1704 /// LOC100996395 / RFU, ING1 / Fold change vs veh, ING1 / RFU, TRMT61B / Fold change vs veh, TRMT61B / RFU, FUBP3 / Fold change vs veh, FUBP3 / RFU, TP53 / Fold change vs veh, TP53 / RFU, TNKS2 / Fold change vs veh, TNKS2 / RFU, ZFP14 / Fold change vs veh, ZFP14 / RFU, ACTR2 / Fold change vs veh, ACTR2 / RFU, PPP3R1 / Fold change vs veh, PPP3R1 / RFU, PIK3R1 / Fold change vs veh, PIK3R1 / RFU, HNRNPA1 / Fold change vs veh, HNRNPA1 / RFU, RNF170 / Fold change vs veh, RNF170 / RFU, ZNF28 / Fold change vs veh, ZNF28 / RFU, RNGTT / Fold change vs veh, RNGTT / RFU, OGT / Fold change vs veh, OGT / RFU, BRD1 / Fold change vs veh, BRD1 / RFU, MARS / Fold change vs veh, MARS / RFU, ZNF655 / Fold change vs veh, ZNF655 / RFU, FAHD1 / Fold change vs veh, FAHD1 / RFU, BDP1 / Fold change vs veh, BDP1 / RFU, LRRCC1 / Fold change vs veh, LRRCC1 / RFU, ARID1A / Fold change vs veh, ARID1A / RFU, ZNF146 / Fold change vs veh, ZNF146 / RFU, ZNF330 / Fold change vs veh, ZNF330 / RFU, GPN3 / Fold change vs veh, GPN3 / RFU, C9orf123 / Fold change vs veh, C9orf123 / RFU, N4BP2L2 / Fold change vs veh, N4BP2L2 / RFU, ARFIP1 / Fold change vs veh, ARFIP1 / RFU, FAM179B / Fold change vs veh, FAM179B / RFU, BCL10 / Fold change vs veh, BCL10 / RFU, UHRF1BP1L / Fold change vs veh, UHRF1BP1L / RFU, BET1 / Fold change vs veh, BET1 / RFU, CNOT2 / Fold change vs veh, CNOT2 / RFU, ZNF268 / Fold change vs veh, ZNF268 / Fold change vs veh, ZNF507 / RFU, DGCR2 / Fold change vs veh, DGCR2 / RFU, WDSUB1 / Fold change vs veh, WDSUB1 / Fold change vs veh, HSP90B1 /// MIR3652 / RFU, ADSS / Fold change vs veh, ADSS / RFU, GK / Fold change vs veh, GK / RFU, ZNF148 / Fold change vs veh, ZNF148 / RFU, TAF9 / Fold change vs veh, TAF9 / RFU, SLC1A5 / Fold change vs veh, SLC1A5 / RFU, SLMO2 / Fold change vs veh, SLMO2 / RFU, ABCC4 / Fold change vs veh, ABCC4 / RFU, LOC101060439 /// RAP1B / Fold change vs veh, LOC101060439 /// RAP1B / RFU, RFX7 / Fold change vs veh, RFX7 / RFU, GTPBP10 / Fold change vs veh, GTPBP10 / RFU, CNEP1R1 / Fold change vs veh, CNEP1R1 / RFU, BIVM-ERCC5 /// ERCC5 / Fold change vs veh, BIVM-ERCC5 /// ERCC5 / RFU, ILF3 / Fold change vs veh, ILF3 / RFU 11762660_at / Fold change /veh 11762660_at / RFU VCAN (11757783_s_at) / Fold change /veh VCAN (11757783_s_at) / RFU DDX43 (11728927_at) / Fold change /veh DDX43 (11728927_at) / RFU KRT8 (11758188_x_at) / Fold change /veh KRT8 (11758188_x_at) / RFU NKD1 (11759106_at) / Fold change /veh NKD1 (11759106_at) / RFU SRD5A1 (11742802_a_at) / Fold change /veh SRD5A1 (11742802_a_at) / RFU TPSAB1 /// TPSB2 (11721975_s_at) / Fold change /veh TPSAB1 /// TPSB2 (11721975_s_at) / RFU GSTM3 (11746129_a_at) / Fold change /veh GSTM3 (11746129_a_at) / RFU IL23R (11737362_x_at) / Fold change /veh IL23R (11737362_x_at) / RFU TMEM51 (11727254_a_at) / Fold change /veh TMEM51 (11727254_a_at) / RFU PIWIL2 (11732686_x_at) / Fold change /veh PIWIL2 (11732686_x_at) / RFU ORM1 (11744905_x_at) / Fold change /veh ORM1 (11744905_x_at) / RFU CCDC152 (11743942_at) / Fold change /veh CCDC152 (11743942_at) / RFU ECM1 (11717891_a_at) / Fold change /veh ECM1 (11717891_a_at) / RFU IL23R (11748794_a_at) / Fold change /veh IL23R (11748794_a_at) / RFU TNFAIP8L3 (11732012_x_at) / Fold change /veh TNFAIP8L3 (11732012_x_at) / RFU MBOAT4 (11741988_at) / Fold change /veh MBOAT4 (11741988_at) / RFU 11764193_at / Fold change /veh 11764193_at / RFU TMEM53 (11763286_at) / Fold change /veh TMEM53 (11763286_at) / RFU MAGEB2 (11727129_at) / Fold change /veh MAGEB2 (11727129_at) / RFU TMEM200A (11744735_a_at) / Fold change /veh TMEM200A (11744735_a_at) / RFU CCDC152 (11751479_a_at) / Fold change /veh CCDC152 (11751479_a_at) / RFU FAM211A (11726209_a_at) / Fold change /veh FAM211A (11726209_a_at) / RFU RGS16 (11746705_a_at) / Fold change /veh RGS16 (11746705_a_at) / RFU VCAN (11755009_s_at) / Fold change /veh VCAN (11755009_s_at) / RFU RHOB (11743442_s_at) / Fold change /veh RHOB (11743442_s_at) / RFU RGS16 (11720943_a_at) / Fold change /veh RGS16 (11720943_a_at) / RFU RGS16 (11720944_at) / Fold change /veh RGS16 (11720944_at) / RFU, VPS4B / Fold change vs veh, VPS4B / RFU, CREB1 / Fold change vs veh, CREB1 / RFU, DNAJC13 / Fold change vs veh, DNAJC13 / RFU, GNAQ / Fold change vs veh, GNAQ / RFU, CDK5R1 / Fold change vs veh, CDK5R1 / RFU, ZRANB3 / Fold change vs veh, ZRANB3 / RFU, CUL4A / Fold change vs veh, CUL4A / RFU, CCNY / Fold change vs veh, CCNY / RFU, UFL1 / Fold change vs veh, UFL1 / RFU, COG3 / Fold change vs veh, COG3 / RFU, DIAPH2 / Fold change vs veh, DIAPH2 / RFU, SKA2 / Fold change vs veh, SKA2 / RFU, AFF3 / Fold change vs veh, AFF3 / RFU, LMF1 / Fold change vs veh, LMF1 / RFU, IPO11 / Fold change vs veh, IPO11 / RFU, DFFB / Fold change vs veh, DFFB / RFU, FOXP1 / Fold change vs veh, FOXP1 / RFU, CARD8 / Fold change vs veh, CARD8 / RFU, STRN3 / Fold change vs veh, STRN3 / RFU, ADK / Fold change vs veh, ADK / RFU, RASSF2 / Fold change vs veh, RASSF2 / RFU, WIPF1 / Fold change vs veh, WIPF1 / RFU, LARP1B / Fold change vs veh, LARP1B / RFU, RASA1 / Fold change vs veh, RASA1 / RFU, RB1 / Fold change vs veh, RB1 / RFU, PPFIA1 / Fold change vs veh, PPFIA1 / RFU, MAT2A / Fold change vs veh, MAT2A / RFU, CCT5 / Fold change vs veh, CCT5 / RFU, WDR92 / Fold change vs veh, WDR92 / RFU, CUX1 / Fold change vs veh, CUX1 / RFU, TTC7A / Fold change vs veh, TTC7A / RFU, TMEM135 / Fold change vs veh, TMEM135 / RFU, DEPTOR / Fold change vs veh, DEPTOR / RFU, CPM / Fold change vs veh, CPM / RFU, DNAJB6 / Fold change vs veh, DNAJB6 / RFU, CACNA2D3 / Fold change vs veh, CACNA2D3 / RFU, DTX4 / Fold change vs veh, DTX4 / RFU, TFCP2 / Fold change vs veh, TFCP2 / RFU, GMCL1 /// GMCL1P1 / Fold change vs veh, GMCL1 /// GMCL1P1 / RFU, AEBP2 / Fold change vs veh, AEBP2 / RFU, SNHG1 /// SNORD22 /// SNORD25 /// SNORD26 /// SNORD27 /// SNORD28 /// SNORD29 /// SNORD31 / Fold change vs veh, SNHG1 /// SNORD22 /// SNORD25 /// SNORD26 /// SNORD27 /// SNORD28 /// SNORD29 /// SNORD31 / Fold change (Aza/veh), C12orf56 (ProbeSet 11735607_a_at) / Fold change (ACY-1035/veh), C12orf56 (ProbeSet 11735607_a_at) / Fold change (Aza/veh), FGFR1OP (ProbeSet 11751329_s_at) / Fold change (ACY-1035/veh), FGFR1OP (ProbeSet 11751329_s_at) / Fold change (Aza/veh), VPS36 (ProbeSet 11739960_a_at) / Fold change (ACY-1035/veh), VPS36 (ProbeSet 11739960_a_at) / RFU SYPL1 (11715823_x_at) / Fold change /veh SYPL1 (11715823_x_at) / RFU IGFBP7 (11715501_s_at) / Fold change /veh IGFBP7 (11715501_s_at) / RFU REEP3 (11722064_at) / Fold change /veh REEP3 (11722064_at) / RFU IGLL1 (11728026_x_at) / Fold change /veh IGLL1 (11728026_x_at): dose or concentration left out as unconfirmed
Conditions: ProbeSet 11717876_a_at; LIST D

## Nc1ncn([C@@H]2O[C@H](CO)[C@@H](O)[C@H]2O)c(=O)n1 [azacitidine]
  RFU, PPFIA1: 24.22 RFU
